Reference: patent US20220226341A1, “Pharmaceutical Composition for Alzheimer's Disease” (Kyoto University, priority 2019, published 2022)

Legend:
CDK9/CycT1 = CDK9/CycT1 (Homo sapiens, UniProt P50750); assay: CDK9 inhibitory activity, Off-chip Mobility Shift Assay (MSA); assay type: biochemical; conditions: room temperature, one hour, read-out: IC50 value with respect to CDK9/CycT1
Protocol: [Assay of CDK9 Inhibitory Activity]
The tests for confirming CDK9 inhibitory activity were carried out by the following procedure according to Off-chip Mobility Shift Assay (MSA).
A substrate/ATP/metal solution (4×) was prepared with use of a kit buffer (20 mM HEPES, 0.01% Triton X-100, 5 mM DTT, pH7.5). A kinase solution (2×) was prepared with use of an assay buffer.
2) The test substance solutions, the substrate/ATP/metal solution, and the kinase solution were mixed in wells of a polypropylene plate, and were caused to react at room temperature for one hour.
3) A termination buffer (QuickScout Screening Assist MSA; Cama Biosciences Inc.)
was added thereto to stop the reaction.
4) Substrate peptides and phosphorylated peptides in the reaction solutions were separated and quantified in LabChip™ System (PerkinElmer Co., Ltd.).
5) Kinase reaction activities were evaluated based on a product ratio (P/(P+S)) calculated from a peak height of the substrate peptide (S) and a peak height of the phosphorylated peptide (P).

[1] = Tissue distribution of radioactivity after single intravenous administration of 14C-labeled Compound 1 (blood-brain barrier penetration); assay type: in vivo; conditions: rats, single iv 5 mg/kg 14C-labeled, n = 3
Protocol: [Testing the Penetration of the Compound Through the Blood-Brain Barrier]
Brain permeability (intracerebral transferability) of Compound 1 was evaluated.
^14C-labeled Compound 1 was intravenously administered once in a dose of 5 mg/kg (3.52 MBq/kg) to rats, and histological distribution (biodistribution) thereof was studied.

CDK9/CycT1, sequence (P50750 whole entry): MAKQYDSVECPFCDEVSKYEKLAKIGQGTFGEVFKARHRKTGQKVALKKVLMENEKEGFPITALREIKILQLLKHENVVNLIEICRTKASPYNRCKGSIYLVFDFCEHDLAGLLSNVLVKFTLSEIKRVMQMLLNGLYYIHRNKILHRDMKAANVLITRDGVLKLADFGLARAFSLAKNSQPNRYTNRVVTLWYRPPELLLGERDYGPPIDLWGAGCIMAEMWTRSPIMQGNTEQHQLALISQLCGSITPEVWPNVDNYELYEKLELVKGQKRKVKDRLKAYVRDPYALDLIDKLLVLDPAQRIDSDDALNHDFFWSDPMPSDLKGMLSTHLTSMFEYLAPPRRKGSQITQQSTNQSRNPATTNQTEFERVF
CDK9/CycT1, sequence (O60563 whole entry partner): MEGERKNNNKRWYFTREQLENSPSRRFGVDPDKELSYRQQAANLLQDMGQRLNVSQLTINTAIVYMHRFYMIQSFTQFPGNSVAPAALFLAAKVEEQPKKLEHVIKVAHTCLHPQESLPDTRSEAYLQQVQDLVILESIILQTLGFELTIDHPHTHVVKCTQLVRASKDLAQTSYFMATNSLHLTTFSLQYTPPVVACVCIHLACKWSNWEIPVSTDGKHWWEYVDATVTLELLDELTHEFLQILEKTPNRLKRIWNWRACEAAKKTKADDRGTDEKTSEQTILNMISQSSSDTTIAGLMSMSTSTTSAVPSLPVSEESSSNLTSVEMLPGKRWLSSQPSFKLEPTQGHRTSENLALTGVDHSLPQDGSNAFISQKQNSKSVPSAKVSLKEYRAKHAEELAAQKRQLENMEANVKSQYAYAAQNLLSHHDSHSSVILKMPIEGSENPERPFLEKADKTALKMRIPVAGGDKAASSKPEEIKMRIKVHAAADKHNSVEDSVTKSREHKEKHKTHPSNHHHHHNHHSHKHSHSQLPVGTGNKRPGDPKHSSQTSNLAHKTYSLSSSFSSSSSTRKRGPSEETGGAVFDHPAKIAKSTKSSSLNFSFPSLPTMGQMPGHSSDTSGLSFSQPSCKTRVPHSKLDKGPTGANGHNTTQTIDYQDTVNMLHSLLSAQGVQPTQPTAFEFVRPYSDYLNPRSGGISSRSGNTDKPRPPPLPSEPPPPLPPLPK

Fc1ccc(N2CCCCC2)c(NC(=S)c2ccncc2)c1 [Compound 1]
IC50 (CDK9/CycT1): 5.8 µM | Radioactivity concentration ([1]; Adrenal gland, 5 min): 47334.91 ng eq. of Compound 1/g or mL | Radioactivity concentration ([1]; Adrenal gland, 6 h): 1517.3 ng eq. of Compound 1/g or mL | Radioactivity concentration ([1]; Adrenal gland, 24 h): 195.16 ng eq. of Compound 1/g or mL | Radioactivity concentration ([1]; Adrenal gland, 72 h): 23.21 ng eq. of Compound 1/g or mL | Radioactivity concentration ([1]; Aorta, 5 min): 1995.27 ng eq. of Compound 1/g or mL | Radioactivity concentration ([1]; Aorta, 6 h): 730.03 ng eq. of Compound 1/g or mL | Radioactivity concentration ([1]; Aorta, 24 h): 76.22 ng eq. of Compound 1/g or mL | Radioactivity concentration ([1]; Bonemarrow, 5 min): 6109.89 ng eq. of Compound 1/g or mL | Radioactivity concentration ([1]; Bonemarrow, 6 h): 900.75 ng eq. of Compound 1/g or mL | Radioactivity concentration ([1]; Bonemarrow, 24 h): 106.7 ng eq. of Compound 1/g or mL | Radioactivity concentration ([1]; Brown fat, 5 min): 8467.9 ng eq. of Compound 1/g or mL | Radioactivity concentration ([1]; Brown fat, 6 h): 6412.21 ng eq. of Compound 1/g or mL | Radioactivity concentration ([1]; Brown fat, 24 h): 217.43 ng eq. of Compound 1/g or mL | Radioactivity concentration ([1]; Brown fat, 72 h): 11.3 ng eq. of Compound 1/g or mL | Radioactivity concentration ([1]; Cecum, 5 min): 5555.55 ng eq. of Compound 1/g or mL | Radioactivity concentration ([1]; Cecum, 6 h): 3979.48 ng eq. of Compound 1/g or mL | Radioactivity concentration ([1]; Epididymis, 5 min): 2568.88 ng eq. of Compound 1/g or mL | Radioactivity concentration ([1]; Epididymis, 6 h): 1809.29 ng eq. of Compound 1/g or mL | Radioactivity concentration ([1]; Epididymis, 24 h): 312.66 ng eq. of Compound 1/g or mL | Radioactivity concentration ([1]; Epididymis, 72 h): 21.99 ng eq. of Compound 1/g or mL | Radioactivity concentration ([1]; Eyeball, 5 min): 1785.93 ng eq. of Compound 1/g or mL | Radioactivity concentration ([1]; Eyeball, 6 h): 960.39 ng eq. of Compound 1/g or mL | Radioactivity concentration ([1]; Eyeball, 24 h): 117.64 ng eq. of Compound 1/g or mL | Radioactivity concentration ([1]; Eyeball, 72 h): 7.03 ng eq. of Compound 1/g or mL | Radioactivity concentration ([1]; Fat, 5 min): 1181.88 ng eq. of Compound 1/g or mL | Radioactivity concentration ([1]; Fat, 6 h): 5031.8 ng eq. of Compound 1/g or mL | Radioactivity concentration ([1]; Fat, 24 h): 1665.35 ng eq. of Compound 1/g or mL | Radioactivity concentration ([1]; Fat, 72 h): 112.35 ng eq. of Compound 1/g or mL | Radioactivity concentration ([1]; Harderian gland, 5 min): 12633.83 ng eq. of Compound 1/g or mL | Radioactivity concentration ([1]; Harderian gland, 6 h): 1418.19 ng eq. of Compound 1/g or mL | Radioactivity concentration ([1]; Harderian gland, 24 h): 131.47 ng eq. of Compound 1/g or mL | Radioactivity concentration ([1]; Harderian gland, 72 h): 8.95 ng eq. of Compound 1/g or mL | Radioactivity concentration ([1]; Heart, 5 min): 8604.53 ng eq. of Compound 1/g or mL | Radioactivity concentration ([1]; Heart, 6 h): 912.54 ng eq. of Compound 1/g or mL | Radioactivity concentration ([1]; Heart, 24 h): 105.78 ng eq. of Compound 1/g or mL | Radioactivity concentration ([1]; Heart, 72 h): 10.01 ng eq. of Compound 1/g or mL | Radioactivity concentration ([1]; Kidney, 5 min): 13230.64 ng eq. of Compound 1/g or mL | Radioactivity concentration ([1]; Kidney, 6 h): 2138.26 ng eq. of Compound 1/g or mL | Radioactivity concentration ([1]; Kidney, 24 h): 264.55 ng eq. of Compound 1/g or mL | Radioactivity concentration ([1]; Kidney, 72 h): 31.5 ng eq. of Compound 1/g or mL | Radioactivity concentration ([1]; Kidney, 168 h): 12.02 ng eq. of Compound 1/g or mL | Radioactivity concentration ([1]; Liver, 5 min): 29518.18 ng eq. of Compound 1/g or mL | Radioactivity concentration ([1]; Liver, 6 h): 3033.96 ng eq. of Compound 1/g or mL | Radioactivity concentration ([1]; Liver, 24 h): 740.19 ng eq. of Compound 1/g or mL | Radioactivity concentration ([1]; Liver, 72 h): 180.72 ng eq. of Compound 1/g or mL | Radioactivity concentration ([1]; Liver, 168 h): 48.2 ng eq. of Compound 1/g or mL | Radioactivity concentration ([1]; Lung, 5 min): 7645.96 ng eq. of Compound 1/g or mL | Radioactivity concentration ([1]; Lung, 6 h): 1247.84 ng eq. of Compound 1/g or mL | Radioactivity concentration ([1]; Lung, 24 h): 175.43 ng eq. of Compound 1/g or mL | Radioactivity concentration ([1]; Lung, 72 h): 33.55 ng eq. of Compound 1/g or mL | Radioactivity concentration ([1]; Lung, 168 h): 12.98 ng eq. of Compound 1/g or mL | Radioactivity concentration ([1]; Mandibular gland, 5 min): 13355.34 ng eq. of Compound 1/g or mL
